Measurements reported in patent US20200038474A1, “COMPOSITION, USE AND METHOD FOR TREATING NEURODEGENERATIVE DISEASES” (FUNDAÇÃO BUTANTAN, priority 2016, published 2020).

Experiments:
[1] = test system: κ opioid receptor; details: literature report; cited from earlier work
[2] = test system: Experimental Autoimmune Encephalomyelitis; test: Experimental Autoimmune Encephalomyelitis (EAE) induced by MOG35-55, clinical signs scored 0 to 5; format: in vivo, female C57BL/6 mice

EFSPENCQGESQPC [Crotalphine]
antinociception [1]: induces antinociception mediated by κ opioid receptor activation
animals that reached clinical score 2 ([2]; single dose of 50 μg/kg on the 5th day after immunization, 100% of saline controls reached a score between 3 and 5): 43%
severity of clinical signs ([2]; single dose of 50 μg/kg on the 5th day after immunization, vs saline control, n=8, p<0.05): significantly decreased the severity of clinical signs
motor impairment in animal model of multiple sclerosis ([2]; summary statement): partially reverse the motor impairment
